# Test results published in patent US9556437B2, “FAT1 gene in cancer and inflammation” (DEPARTMENT OF BIOTECHNOLOGY (DBT), priority 2012, dated 2017).
# “Also recorded” adds a separate entry of the source.
# Tests used:
# Type in all cases: cell-based, human
# [1] = system: MMP3; assay: MMP3 mRNA expression by q-PCR; conditions: U87MGsiFAT1 cells
# Protocol: (§1) Cell Culture and siRNA Transfection: The human glioma cell lines U87MG, U373, A172, T98G, GOS3 and SW1088 were obtained from ATCC; Rockville, Md., cultured in DMEM (Sigma-Aldrich, Switzerland) supplemented with 10% (v/v) FCS (Sigma-Aldrich), 3.7 g/l sodium bicarbonate (Sigma-Aldrich), Ciprofloxacin 10 μg/ml and 5% CO2 at 37° C. For transfection, 2×10^5 cells were seeded per 25 cm^2 flask. After 24 hrs, cells were transfected with FAT1 siRNA and universal medium GC control siRNA (Invitrogen) according to the manufacturer's protocol with a final concentration of 20 nM of siRNA using LIPOFECTAMINE 2000 (Invitrogen) and Opti-Mem media (Invitrogen). After 4 hrs of siRNA transfection, the media was supplemented with DMEM containing 2×FCS. The ability of each siRNA to mediate knockdown of FAT1 mRNA was confirmed using qRT-PCR. Photomicrographs of the cells were taken using an inverted phase contrast microscope (Nikon TMS, Phase contrast microscope, Japan). For simultaneous knockdown of FAT1 and PDCD4, siRNA from Dharmacon were used. Transfection was performed as earlier with 50 nM of FAT1 siRNA along with 50 nM of PDCD4 siRNA or 50 nM of control siRNA.
# (§2) cDNA Synthesis and Quantitative PCR: Total RNA was isolated from cells at appropriate time point (vide supra) using TRIzol reagent (Invitrogen), quantified using a Nanodrop ND-1000 spectrophotometer. […]
# [2] = system: AP-1 transcriptional activity; assay: AP-1 luciferase assay; conditions: U87MGsiFAT1 vs U87siControl, p<0.01
# Protocol: AP-1 and COX-2 Promoter Luciferase Assay: U87MG cells (40000 cells/well) were plated in 6-well plates in triplicate on day zero. On day 1, cells were transfected with siFAT1 and siControl. On day 2 cells were transiently transfected with 4×AP-1-luciferase reporter plasmids as described previously. Cells were transfected with 1 μg of AP-17× luciferase reporter plasmid, along with 50 ng of pRL-TK (Renilla luciferase) control plasmid using LIPOFECTAMINE2000 as the transfection reagent. After 48 hrs, the cells were lysed by 1× passive-lysis-buffer (Promega, Madison, Wis., USA) and assayed for luciferase activity as previously described. For COX-2 luciferase assay U87MG cells were transfected with siFAT1 and siControl on day 1 and after 4 hrs incubation were treated with 10 μM SR11302. On day2 cells were transiently transfected with COX-2 reporter plasmid and again treated with 10 μM SR11302. After 48 hrs, the cells were assayed for luciferase activity.
# [3] = system: phospho-Akt; assay: Western blot phospho-Akt; conditions: U87MG cells after FAT1 knockdown
# Protocol: FIG. 9: FAT1 knockdown results in increased p-akt level in U87MG cell line; Akt is known to negatively regulate PDCD4 expression; therefore, the effect of FAT1 knockdown on the phosphorylation status of Akt in U87MG cells was checked by Western blot analysis using β-actin as a loading control.
# (§3) Western Blotting Analyses: Cells were lysed in triple detergent buffer containing protease and phosphatase inhibitors (Sigma Aldrich), lysates were quantified by BCA kit (Pierce, Thermo Fisher Scientific, Rockford, Ill. USA) and electrophoresed in 10% SDS-PAGE and electroblotted on nitrocellulose membrane (Millipore, Billerica, Mass., USA). Membrane was blocked with 5% bovine serum albumin (BSA) in 1×TBS at 4° C. for overnight. Primary and secondary antibody was diluted in 5% BSA and 0.1% tween-20 in 1×TBS. Blot was incubated in primary antibody overnight at 4° C. followed by secondary antibody incubation for 2 hrs at room temperature. Blot was developed by BCIP-NBT (Promega, Madison, Wis., USA) and captured using Alpha Imager EP software.
# [4] = system: PDCD4; assay: PDCD4 mRNA expression by q-PCR; conditions: 72 hrs post siRNA transfection
# Protocol: as §1
# cDNA Synthesis and Quantitative PCR: Total RNA was isolated from cells at appropriate time point (vide supra) using TRIzol reagent (Invitrogen), quantified using a Nanodrop ND-1000 spectrophotometer. DNase (Ambion) treatment was given and 1 μg of total RNA was used for cDNA synthesis, done by Fermentas RevertAid™ First Strand cDNA Synthesis Kit using random decamers. PCR reactions were carried in 10 μL reaction volumes (2.5 μL of 1:5 diluted cDNA, […] of primer mix (0.5 pmol/μL as final concentration of each primer), 1 μL, of 10× Taq Buffer A, 0.5 U Taq polymerase (Bangalore Genei, Bangalore, India), 1 μL Syto9 (Invitrogen), 0.25 μL of 10 mM dNTPs (MBI Fermentas, Thermo Fisher Scientific, Rockford, Ill. USA), and 4.6 μL of nuclease-free water (Ambion) on a RotorGene6000 Real Time PCR in triplicates. The detail of the primers used is given in Table 1. ΔCt values were defined as target gene Ct minus 18s RNA Ct and averaged for each triplicate sample. Statistical significance was determined by Student's t-test analysis (P<0.05).
# [5] = system: U87MG cells; assay: Migration assay, modified Boyden chamber; conditions: U87MGsiFAT1 vs siControl, 24 hrs assay, 72 hrs post-transfection, P<0.01
# Protocol: (§4) Migration and Invasion Assays: The modified Boyden chamber/matrigel assay was performed according to the manufacturer's directions (BD Biosciences, Bedford, Mass.). For in vitro migration assays, chambers with control inserts that lacked the matrigel coating were used. Transfections were carried out in U87MG and A172 cells and 48 hrs later 3×10^4 U87MG cells/well and 7×10^4 A172 cells/well were resuspended in serum-free DMEM and seeded in triplicate in matrigel-coated (1 mg/ml; BD Biosciences) and uncoated control inserts (8-μm pore-size, BD Bioscience, Bedford, Mass.). The remaining protocol was done as previously described.
# [6] = system: A172 cells; assay: Migration assay, modified Boyden chamber; conditions: A172siFAT1 vs siControl, 24 hrs assay, 72 hrs post-transfection, P<0.001
# Protocol: as §4
# [7] = system: c-jun; assay: c-jun mRNA level by q-PCR; conditions: U87MGsiFAT1 vs U87MGsiControl
# Protocol: as §1, §2
# [8] = system: COX-2; assay: Western blot COX-2 protein; conditions: U87MGsiFAT1 vs siControl
# Protocol: as §3
# [9] = system: c-jun; assay: Western blot total c-jun; conditions: U87MGsiFAT1 vs siControl
# Protocol: as §3
substance,measurement,setting,value
"siFAT1: FAT1 specific siRNA (Invitrogen), FAT Stealth RNAi siRNA-I (HSS103567), used for further experiments (sense CCCAACACACCUGUGGUCAUGGUAA; antisense UUACCAUGACCACAGGUGUGUUGGG; Stealth modification, chemistry not fully specified; listed as Homo sapiens)",decrease in MMP3 mRNA expression,[1],more than 10 fold
same,reduction in AP-1 luciferase activity,[2],2 fold
same,phospho-Akt level,[3],increase
same,increase in PDCD4 mRNA expression,"[4]; A172, vs siControl",2.8 fold
same,increase in PDCD4 mRNA expression,"[4]; T98G, vs siControl",3.5 fold
same,increase in PDCD4 mRNA expression,"[4]; U87MG, vs siControl",2.4 fold
same,increase in PDCD4 mRNA expression,"[4]; U373MG, vs siControl",3.2 fold
same,increase in PDCD4 mRNA expression,"[4]; all the GBM cell lines (U87MG, A172, U373 and T98)",more than two fold
same,reduction in migration,[5],> 2 fold
same,reduction in migration,[6],> 3 fold
same,c-jun mRNA level,[7],decreased by two folds; also recorded: reduced by two folds
same,COX-2 protein expression,[8],Significant reduction; also recorded: decreased
same,total c-jun protein level,[9],reduction
